≈ marks a conversion by molar mass, not a printed value.
Assays:
Type in all cases: cell-based
E. coli, NIHJ = assay: Antibacterial activity (MIC), E. coli NIHJ; settings: for MIC: Escherichia coli
Description: (§1) The antibacterial activity assays were performed by the method specified by Japan Society of Chemotherapy (Chemotherapy 29(1), 76 (1981). The table of antibacterial activity is followed by the reaction schemes for the synthesis of various spiro ring-containing cyclic amine derivatives, intermediate compounds for synthesis of quinolone rings and synthesis of various spiro compounds.

S. flexneri, 2A 5503 = assay: Antibacterial activity (MIC), S. flexneri 2A 5503; settings: for MIC: Shigella flexneri, 2A5503
Description: as §1

Pr. vulgaris, 08601 = assay: Antibacterial activity (MIC), Pr. vulgaris 08601; settings: for MIC: Proteus vulgaris
Description: as §1

Pr. mirabillis, IF0-3849 = assay: Antibacterial activity (MIC), Pr. mirabillis IF0-3849
Description: as §1

Ser. marcescens, 10100 = assay: Antibacterial activity (MIC), Ser. marcescens 10100; settings: for MIC: Serratia marcescens, 10100, Ser. marcescens
Description: as §1

Ps. aeruginosa, 32104 = assay: Antibacterial activity (MIC), Ps. aeruginosa 32104; settings: for MIC: Pseudomonas aeruginosa, 32104, Ps. aeruginosa
Description: as §1

Ps. aeruginosa, 32121 = assay: Antibacterial activity (MIC), Ps. aeruginosa 32121; settings: for MIC: Pseudomonas aeruginosa, 32121, Ps. aeruginosa
Description: as §1

[1] = test system: Ps. maltophilia, IID-1275; assay: Antibacterial activity (MIC), Ps. maltophilia IID-1275; settings: for MIC: Stenotrophomonas maltophilia, IID1275, Ps. maltophilia
Description: as §1

S. aureus, 209P = assay: Antibacterial activity (MIC), S. aureus 209P; settings: for MIC: Staphylococcus aureus
Description: as §1

S. epidermidis, 56500 = assay: Antibacterial activity (MIC), S. epidermidis 56500; settings: for MIC: Staphylococcus epidermidis, 56500, S. epidermidis
Description: as §1

Str. pyogenes, G-36 = assay: Antibacterial activity (MIC), Str. pyogenes G-36; settings: for MIC: Streptococcus pyogenes, G36, Str. pyogenes
Description: as §1

[2] = test system: Str. faecalis, ATCC-19433; assay: Antibacterial activity (MIC), Str. faecalis ATCC-19433; settings: for MIC: Enterococcus faecalis, ATCC19433, Str. faecalis
Description: as §1

Structure (SMILES) | MIC (E. coli, NIHJ) | MIC (S. flexneri, 2A 5503) | MIC (Pr. vulgaris, 08601) | MIC (Pr. mirabillis, IF0-3849) | MIC (Ser. marcescens, 10100) | MIC (Ps. aeruginosa, 32104) | MIC (Ps. aeruginosa, 32121) | MIC [1] | MIC (S. aureus, 209P) | MIC (S. epidermidis, 56500) | MIC (Str. pyogenes, G-36) | MIC [2] | also measured
O=C(O)c1cn(C2CC2)c2c(Cl)c(N3CC(O)C4(CC4)C3)c(F)cc2c1=O (stereo not drawn) [Compound 39, 7-(7-Hydroxy-5-azaspiro[2.4]heptan-5-yl)-8-chloro-1-cyclopropyl-6-fluoro-1,4-dihydro-4-oxoquinoline-3-carboxylic acid] | ≤ 0.05 µg/mL | ≤ 0.05 µg/mL | ≤ 0.05 µg/mL | 0.2 µg/mL (≈ 0.509 µM) | 0.39 µg/mL (≈ 0.993 µM) | 1.56 µg/mL (≈ 3.97 µM) | 0.39 µg/mL (≈ 0.993 µM) | ≤ 0.05 µg/mL | ≤ 0.05 µg/mL | ≤ 0.05 µg/mL | 0.39 µg/mL (≈ 0.993 µM) | 0.39 µg/mL (≈ 0.993 µM) | –
NC1CN(c2c(F)cc3c(=O)c(C(=O)O)cn(C4CC4)c3c2Cl)CC12CC2 (racemic) [Compound 32, 7-(7-Amino-5-azaspiro[2.4]heptan-5-yl)-8-chloro-1-cyclopropyl-6-fluoro-1,4-dihydro-4-oxoquinoline-3-carboxylic Acid] | ≤ 0.05 µg/mL | ≤ 0.05 µg/mL | ≤ 0.05 µg/mL | ≤ 0.05 µg/mL | ≤ 0.05 µg/mL | 0.1 µg/mL (≈ 0.255 µM) | ≤ 0.05 µg/mL | ≤ 0.05 µg/mL | ≤ 0.05 µg/mL | 0.1 µg/mL (≈ 0.255 µM) | 0.1 µg/mL (≈ 0.255 µM) | 0.1 µg/mL (≈ 0.255 µM) | –
NC1CN(c2nc3c(cc2F)c(=O)c(C(=O)O)cn3C2CC2)CC12CC2 (single isomer, unassigned; (-)) [Compound 35b, (-)-7-(7-Amino-5-azaspiro[2.4]heptan-5-yl)-1-cyclopropyl-6-fluoro-4-oxo-1,4-dihydro-1,8-naphthyridine-3-carboxylic acid] | ≤ 0.05 µg/mL | ≤ 0.05 µg/mL | ≤ 0.05 µg/mL | ≤ 0.05 µg/mL | ≤ 0.05 µg/mL | ≤ 0.05 µg/mL | ≤ 0.05 µg/mL | ≤ 0.05 µg/mL | ≤ 0.05 µg/mL | 0.1 µg/mL (≈ 0.279 µM) | 0.78 µg/mL (≈ 2.18 µM) | 0.39 µg/mL (≈ 1.09 µM) | –
Cc1c(N2CC(N)C3(CC3)C2)c(F)cc2c(=O)c(C(=O)O)cn(C3CC3)c12 (single isomer, unassigned; (-)) [Compound 55b, (-)-7-(7-Amino-5-azaspiro[2.3]heptan-5-yl)-1-cyclopropyl-6-fluoro-8-methyl-4-oxo-1,4-dihydroquinoline-3-carboxylic acid] | ≤ 0.05 µg/mL | ≤ 0.05 µg/mL | ≤ 0.05 µg/mL | ≤ 0.05 µg/mL | 0.1 µg/mL (≈ 0.269 µM) | ≤ 0.05 µg/mL | ≤ 0.05 µg/mL | ≤ 0.05 µg/mL | ≤ 0.05 µg/mL | ≤ 0.05 µg/mL | 0.1 µg/mL (≈ 0.269 µM) | 0.1 µg/mL (≈ 0.269 µM) | –
O=C(O)c1cn(C2CC2)c2c(F)c(N3CC(CO)C4(CCC4)C3)c(F)cc2c1=O (stereo not drawn) [Compound 108, 1-Cyclopropyl-6,8,difluoro-7-(8-hydroxymethyl-6-azaspiro-[3.4]octan-6-yl)-4-oxo-1,4-dihydroquinoline-3-carboxylic acid] | 0.2 µg/mL (≈ 0.495 µM) | 0.2 µg/mL (≈ 0.495 µM) | 0.1 µg/mL (≈ 0.247 µM) | 0.78 µg/mL (≈ 1.93 µM) | 1.56 µg/mL (≈ 3.86 µM) | 1.56 µg/mL (≈ 3.86 µM) | 0.39 µg/mL (≈ 0.964 µM) | 1.56 µg/mL (≈ 3.86 µM) | ≤ 0.05 µg/mL | ≤ 0.05 µg/mL | 0.39 µg/mL (≈ 0.964 µM) | 0.2 µg/mL (≈ 0.495 µM) | –
N[C@@H]1CN(c2nc3c(cc2F)c(=O)c(C(=O)O)cn3-c2ccc(F)cc2F)CC12CC2 [Compound 111b, (-)-7-[7-(S)-amino-5-azaspiro[2.3]heptan-5-yl)-6-fluoro-1-(2,4-difluorophenyl)-1,4-dihydro-4-oxo-1,8-naphthyridine-3-carboxylate] | ≤ 0.05 µg/mL | ≤ 0.05 µg/mL | ≤ 0.05 µg/mL | 0.2 µg/mL (≈ 0.465 µM) | 0.1 µg/mL (≈ 0.232 µM) | 0.2 µg/mL (≈ 0.465 µM) | 0.1 µg/mL (≈ 0.232 µM) | 0.2 µg/mL (≈ 0.465 µM) | ≤ 0.05 µg/mL | 0.1 µg/mL (≈ 0.232 µM) | 0.2 µg/mL (≈ 0.465 µM) | 0.39 µg/mL (≈ 0.906 µM) | –
NC1CN(c2c(F)cc3c(=O)c(C(=O)O)cn(C4CC4)c3c2F)CC12CC2 (single isomer, unassigned; (-)) [Compound 31b, (-)-7-(7-Amino-5-azaspiro[2.4]heptan-5-yl)-1-cyclopropyl-6,8-difluoro-1,4-dihydro-4-oxoquinoline-3-carboxylic Acid] | – | – | – | – | – | – | – | – | – | – | – | – | Antibacterial Activity (MIC) (E. coli, NIHJ): ≤ 0.05 µg/mL; Antibacterial Activity (MIC) (S. flexneri, 2A 5503): ≤ 0.05 µg/mL; Antibacterial Activity (MIC) (Pr. vulgaris, 08601): ≤ 0.05 µg/mL; Antibacterial Activity (MIC) (Pr. mirabillis, IF0-3849): ≤ 0.05 µg/mL; Antibacterial Activity (MIC) (Ser. marcescens, 10100; Ser. marcescens): ≤ 0.05 µg/mL; Antibacterial Activity (MIC) (Ps. aeruginosa, 32104; Ps. aeruginosa): ≤ 0.05 µg/mL; Antibacterial Activity (MIC) (Ps. aeruginosa, 32121; Ps. aeruginosa): ≤ 0.05 µg/mL; Antibacterial Activity (MIC) ([1]; Ps. maltophilia): ≤ 0.05 µg/mL; Antibacterial Activity (MIC) (S. aureus, 209P): ≤ 0.05 µg/mL; Antibacterial Activity (MIC) (S. epidermidis, 56500; S. epidermidis): ≤ 0.05 µg/mL; Antibacterial Activity (MIC) (Str. pyogenes, G-36; Str. pyogenes): 0.10 µg/mL; Antibacterial Activity (MIC) ([2]; Str. faecalis): 0.10 µg/mL

From patent publication US5508428A, “Spiro compound” (Daiichi Phamaceutical Co., Ltd., priority 1988, dated 1996)
